{
  "source": "patent US11415513B2",
  "about": "“Method for determining the degree of sensitivity of a strain of fungus to an antifungal agent” (UNIVERSITE GRENOBLE ALPES, priority 2015, dated 2022)",
  "key": {"[1]": {"tested_on": "strain TOP of C. albicans", "test": "Sensitivity test by HCA microscopy (chitin level, Calcofluor White)", "format": "cell-based, Candida albicans", "conditions": "6.5 h at 30° C., SC medium", "protocol": "(§1) The strains of Candida were incubated beforehand at 30° C. overnight in a yeast extract medium—peptone dextrose (YPD) (1% bacto peptone, 0.5% yeast extract, 2% glucose, 1.5% agar).\n(§2) Yeast colonies were then removed from YPD medium plates and suspended in a 0.9% NaCl saline solution, in which the cell concentration was estimated by optical microscopy using Kova counting slides. […]\n(§3) A step of acquiring images by automated fluorescence microscopy (ScanR screening station, Olympus), using a 40× lens and a CFW filter, made it possible to obtain 30 images per well so as to capture enough cells to provide statistically significant data. These images were analysed by software (ScanR analysis software, Olympus). Firstly, the background noise was processed so as to improve the contrast between the fluorescence of the yeasts and background noise. […] Segmentation of the fluorescent elements present in each of the acquired images was then performed using an algorithm predefined in the software, making it possible to determine the limit of each element on the basis of the fluorescence intensity of said element. […]\n(§4) Each element then corresponding to a yeast, it was thus possible, on the basis of these elements predefined beforehand, to define the fluorescence intensity for each of the yeasts, this intensity being directly correlated with the chitin content of their wall. […]"}, "[2]": {"tested_on": "strain 13/5 of C. tropicalis", "test": "Etest method (MIC)", "format": "cell-based, Candida tropicalis", "conditions": "RPMI medium plates, 24 h at 35° C.", "protocol": "The Etest® method is a commercial test for determining the sensitivity of a strain, most frequently used routinely in clinical mycology laboratories.\nThe Etest® tests were performed according to the manufacturer's instructions. After distributing a standardised Mac Farland 0.5 inoculum (equivalent of […]) over plates of RPMI medium, said plates were incubated for 24 h at 35° C., with the exception of C. glabrata in which case the incubation was extended to 48 h so as to be able to determine the minimum inhibitory concentration (MIC).\nThe results of the MICs obtained were interpreted in accordance with the tables of the CLSI (Clinical and Laboratory Standards Institute) and/or of EUCAST (European Committee on Antimicrobial Susceptibility Testing) (Arendrup M C, Cuenca-Estrella M, Lass-Flörl C, Hope W W (2014) Breakpoints for antifungal agents: an update from EUCAST focussing on echinocandins against Candida spp and triazoles against Aspergillus spp. Drug Resist Updat 16(6):81-95. doi:10.1016/j.drup.2014.01.001) (cf. Table 2 taken from Maubon D, Garnaud C, Calandra T, et al. (2014) Resistance of Candida spp. to antifungal drugs in the ICU: where are we now? Intensive Care Med. doi: 10.1007/s00134-014-3404-7) which list the clinical thresholds (CBPs) for the most common species of yeast of the genus Candida as a function of different antifungal agents, or according to the table of epidemiological thresholds (ECVs)."}, "[3]": {"tested_on": "strain 13/5 of C. tropicalis", "test": "Sensitivity test by HCA microscopy (chitin level, Calcofluor White)", "format": "cell-based, Candida tropicalis", "conditions": "6.5 h at 30° C., SC medium", "protocol": "as §1, §2, §3, §4"}, "[4]": {"conditions": "vs cells in the absence of antifungal agent, concentration gradient up to 1 μg/ml"}},
  "note": "Starred links: 1 amine or outer side, 2 acyl side, 3 side chain; linkers in the order of their positions; H or OH if unused. Positions of bridges follow the written chain, without caps; N, C: chain ends. Non-standard residues stand in square brackets, D forms with d. Residues, ends and D or L forms follow the SMILES beside them. *: point of attachment. hTyr(3S-OH,4S-OH,3'-OSO3H) = N[C@H](C(=O)O)[C@H](O)[C@@H](O)c1ccc(O)c(OS(=O)(=O)O)c1; Orn(4R-OH,5R-OH) = O=C([C@H](C[C@@H](O)[C@@H](O)N[*:3])N[*:1])[*:2]; Pro(3S-OH,4S-Me) = C[C@H]1CN[C@H](C(=O)O)[C@H]1O; X1 = CCCCCOc1ccc(-c2cc(-c3ccc(C(=O)*)cc3)no2)cc1; Gln(3R-OH) = NC(=O)C[C@@H](O)[C@H](N)C(=O)O; Hyp = O=C(O)[C@@H]1C[C@@H](O)CN1",
  "data": [
    {"smiles": "CCCCCOc1ccc(-c2cc(-c3ccc(C(=O)N[C@H]4C[C@@H](O)[C@@H](O)NC(=O)[C@@H]5[C@@H](O)[C@@H](C)CN5C(=O)[C@H]([C@H](O)CC(N)=O)NC(=O)[C@H]([C@H](O)[C@@H](O)c5ccc(O)c(OS(=O)(=O)O)c5)NC(=O)[C@@H]5C[C@@H](O)CN5C(=O)[C@H]([C@@H](C)O)NC4=O)cc3)no2)cc1", "note": "[micafungin] (X1-[Orn(4R-OH,5R-OH)]T[Hyp][hTyr(3S-OH,4S-OH,3'-OSO3H)][Gln(3R-OH)][Pro(3S-OH,4S-Me)]; lactam 1-C)", "values": [
      {"measurement": "phenotype of the strain with respect to the antifungal agent (HCA)", "setting": "[1]", "result": "resistant (an increase in the chitin level having a value less than 10% or a decrease in the chitin level of less than 20% or an unchanged chitin level)"},
      {"measurement": "increase in the chitin level in the wall of the cells", "setting": "[1]; [4]", "result": "less than 10%"},
      {"measurement": "MIC", "setting": "[2]; Candida tropicalis", "result": 1.5, "unit": "µg/mL"},
      {"measurement": "phenotype by Etest MIC, interpretation by the CLSI table", "setting": "[2]", "result": "resistant"},
      {"measurement": "phenotype of the strain with respect to the antifungal agent (HCA)", "setting": "[3]", "result": "resistant (an increase in the chitin level having a value less than 10% or a decrease in the chitin level of less than 20% or an unchanged chitin level)"},
      {"measurement": "increase in the chitin level in the wall of the cells", "setting": "[3]; [4]", "result": "less than 10%"}
    ]}
  ]
}
